Assay results from the supplement of paper PMC10307832.

What was measured:
Assay in all cases: relative viability (nuclei count vs DMSO), 5 days (fraction); higher = more cells survive
AT9283 + OSI-027 = compound: O=C(Nc1c[nH]nc1-c1nc2ccc(CN3CCOCC3)cc2[nH]1)NC1CC1 [AT9283] + COc1cccc2cc(-c3nc([C@H]4CC[C@H](C(=O)O)CC4)n4ncnc(N)c34)[nH]c12 [OSI-027] (partner 0.5 µM)
Method in brief: (§1)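 A single step with final 0.05% Triton X-100, 1% formaldehyde and 1 ug/ml Hoechst fixed the cells and stained nuclei 5 days after treatment. Lung cancer cell lines in 1536-well plates had been treated by pin tool the day after seeding with one drug alone or a fixed anchor-drug dose plus five library-drug doses (not always all listed) in √10 steps, and nuclei were counted on 4× images. Relative viability is the ratio of nuclei in treated wells to nuclei in vehicle wells, taken as the median of duplicate plates.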

AT9283 + Navitoclax = compound: O=C(Nc1c[nH]nc1-c1nc2ccc(CN3CCOCC3)cc2[nH]1)NC1CC1 [AT9283] + CC1(C)CCC(c2ccc(Cl)cc2)=C(CN2CCN(c3ccc(C(=O)NS(=O)(=O)c4ccc(N[C@H](CCN5CCOCC5)CSc5ccccc5)c(S(=O)(=O)C(F)(F)F)c4)cc3)CC2)C1 [Navitoclax] (partner 0.5 µM)
Method in brief: as §1

Erlotinib + Vorinostat = compound: C#Cc1cccc(Nc2ncnc3cc(OCCOC)c(OCCOC)cc23)c1 [Erlotinib] + O=C(CCCCCCC(=O)Nc1ccccc1)NO [Vorinostat] (partner 1 µM)
Method in brief: as §1

AT9283 + Pemetrexed = compound: O=C(Nc1c[nH]nc1-c1nc2ccc(CN3CCOCC3)cc2[nH]1)NC1CC1 [AT9283] + Nc1nc2[nH]cc(CCc3ccc(C(=O)N[C@@H](CCC(=O)O)C(=O)O)cc3)c2c(=O)[nH]1 [Pemetrexed] (partner 0.2 µM)
Method in brief: as §1

Erlotinib + Alpelisib = compound: C#Cc1cccc(Nc2ncnc3cc(OCCOC)c(OCCOC)cc23)c1 [Erlotinib] + Cc1nc(NC(=O)N2CCC[C@H]2C(N)=O)sc1-c1ccnc(C(C)(C)C(F)(F)F)c1 [Alpelisib] (partner 2 µM)
Method in brief: as §1

Cell Line	relative viability (AT9283 + OSI-027; first compound 0.003 µM)	relative viability (AT9283 + OSI-027; first compound 0.03 µM)	relative viability (AT9283 + OSI-027; first compound 0.09487 µM)	relative viability (AT9283 + OSI-027; first compound 0.3 µM)	relative viability (AT9283 + Navitoclax; first compound 0.003 µM)	relative viability (AT9283 + Navitoclax; first compound 0.03 µM)	relative viability (AT9283 + Navitoclax; first compound 0.09487 µM)	relative viability (AT9283 + Navitoclax; first compound 0.3 µM)	relative viability (Erlotinib + Vorinostat; first compound 0.02 µM)	relative viability (Erlotinib + Vorinostat; first compound 0.2 µM)	relative viability (Erlotinib + Vorinostat; first compound 0.6325 µM)	relative viability (Erlotinib + Vorinostat; first compound 2 µM)	relative viability (AT9283 + Pemetrexed; first compound 0.003 µM)	relative viability (AT9283 + Pemetrexed; first compound 0.03 µM)	relative viability (AT9283 + Pemetrexed; first compound 0.09487 µM)	relative viability (AT9283 + Pemetrexed; first compound 0.3 µM)	relative viability (Erlotinib + Alpelisib; first compound 0.02 µM)	relative viability (Erlotinib + Alpelisib; first compound 0.6325 µM)	relative viability (Erlotinib + Alpelisib; first compound 2 µM)	relative viability (Erlotinib + Alpelisib; first compound 0.2 µM)
NCI-H2087	0.637	0.392	0.14	0.134	0.985	0.713	0.273	0.186	0.778	0.788	0.765	0.434	0.664	0.586	0.261	0.183	1.3	1.09	1.04	–
NCI-H2126	0.635	0.808	0.75	0.389	0.871	0.892	0.634	0.319	0.688	0.529	0.438	0.416	0.684	0.693	0.559	0.358	0.781	0.537	0.379	0.644
NCI-H2170	0.663	0.607	0.298	0.172	0.536	0.334	0.201	0.179	0.787	0.855	0.832	0.501	0.464	0.234	0.2	0.132	0.895	0.578	0.308	0.745
NCI-H2228	0.585	0.648	0.355	0.126	0.93	0.774	0.51	0.144	0.649	0.591	0.458	0.476	0.337	0.244	0.181	0.16	0.906	0.716	0.642	0.858
NCI-H2347	0.444	0.427	0.404	0.296	0.93	0.764	0.368	0.267	0.628	0.717	0.625	0.552	0.419	0.417	0.376	0.338	1.33	1.13	0.893	0.966
NCI-H2405	0.685	0.654	0.533	0.262	1.05	0.31	0.127	0.0943	1.27	1.1	1.1	0.917	0.995	0.977	0.324	0.22	0.853	0.822	0.698	0.772
NCI-H3122	0.94	0.645	0.201	0.115	1.01	0.902	0.359	0.298	0.93	1.14	1.05	0.953	0.2	0.191	0.176	0.123	–	0.872	0.736	0.882
PC-3 [JPC-3]	0.741	0.791	0.591	0.517	0.821	0.723	0.363	0.331	–	0.441	0.351	0.362	0.966	1.06	0.717	0.568	0.799	0.352	0.323	0.368
PC-14	0.878	0.745	0.0842	0.08	1.12	1.01	0.37	0.078	0.428	0.0858	0.0926	0.061	0.145	0.0954	0.0681	0.0563	0.562	0.171	0.112	0.133
RERF-LC-KJ	0.609	0.544	0.308	0.279	0.834	0.554	0.223	0.217	0.716	0.605	0.624	0.453	0.465	0.36	0.253	0.225	0.877	0.613	0.469	0.666
SK-LU-1	0.366	0.276	0.22	0.165	1.13	0.415	0.178	0.18	1.01	0.729	0.899	0.718	1.16	0.663	0.396	0.391	1.36	0.962	0.631	1.01
SK-MES-1	0.74	0.619	0.215	0.197	1.24	1.11	0.336	0.147	1.14	0.619	0.672	0.491	1.07	0.843	0.429	0.218	0.926	0.533	0.298	0.536
SW 1573	0.534	0.352	0.146	0.134	0.868	0.508	0.117	0.117	0.652	0.605	0.824	0.405	0.813	0.302	0.182	0.121	0.805	0.87	–	0.706
UMC-11	0.559	0.17	0.152	0.167	0.309	0.113	0.118	0.128	0.388	0.403	0.392	0.3	0.768	0.158	0.196	0.193	0.986	1.21	1.05	1.06
